In patent EP4603105A1, “PHARMACEUTICAL COMPOSITION CONTAINING CYCLIC COMPOUND HAVING SELECTIVE KRAS INHIBITORY EFFECT AGAINST HRAS AND NRAS” (CHUGAI SEIYAKU KABUSHIKI KAISHA, priority 2022, dated 2024):
Where two headings read alike, the source gives them in different places.

How the values were obtained:
[1] = target: GDP-bound KRAS wild-type protein (Homo sapiens, UniProt P01116); test: Binding to KRAS by surface plasmon resonance (SPR), dissociation constant KD
In short: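 Running buffer contained 10 µM GDP and 10 mM MgCl2 to keep RAS in the GDP state, with 4% DMSO at pH 7.4. Compounds were flowed at 100 µL/min in 75 s steps of rising concentration over captured biotin-Avi RAS at 30°C. Sensorgrams were fitted 1:1 for KD.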

[2] = target: HRAS wild-type protein (Homo sapiens, UniProt P01112); test: Binding to HRAS by surface plasmon resonance (SPR), KD and KD ratio to KRAS
Sequence of HRAS wild-type protein (P01112 whole entry): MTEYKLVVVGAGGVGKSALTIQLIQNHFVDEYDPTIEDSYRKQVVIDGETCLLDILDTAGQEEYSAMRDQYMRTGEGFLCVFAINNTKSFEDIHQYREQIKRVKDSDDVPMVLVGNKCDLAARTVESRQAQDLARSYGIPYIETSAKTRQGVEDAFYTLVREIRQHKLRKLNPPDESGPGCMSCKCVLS
In short: (§1)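 Recombinant RAS proteins bearing a biotinylated Avi tag and loaded with GDP served as the captured ligand, recaptured fresh every cycle. Binding responses were referenced to an uncoated surface and a buffer-only blank cycle. Dissociation constants were obtained by 1:1 model fitting at 30°C.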

[3] = target: GDP-bound NRAS wild-type protein (Homo sapiens, UniProt P01111); test: Binding to NRAS by surface plasmon resonance (SPR), KD and KD ratio to KRAS
Sequence of GDP-bound NRAS wild-type protein (P01111 whole entry): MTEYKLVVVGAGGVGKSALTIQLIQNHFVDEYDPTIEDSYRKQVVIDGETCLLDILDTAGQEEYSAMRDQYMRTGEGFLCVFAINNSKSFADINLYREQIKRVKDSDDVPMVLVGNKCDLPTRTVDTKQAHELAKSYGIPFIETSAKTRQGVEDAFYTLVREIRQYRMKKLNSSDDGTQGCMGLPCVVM
In short: as §1

[4] = system: human lung cancer strain NCI-H441; test: NCI-H441 cell proliferation inhibitory activity (CellTiter-Glo, 4 days); format: cell-based; conditions: read-out: NCl-H441 IC50
In short: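 Signal came from […] measured per well once the reagent was added. Beforehand, cells were cultured at 37°C and 5% carbon dioxide on a compound series serially diluted in dimethyl sulfoxide.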

[5] = ratio of KD for HRAS wild-type protein to KD for KRAS
[6] = ratio of KD for GDP-bound NRAS wild-type protein to KD for KRAS
[7] = Single Cycle Kinetics, 1:1 binding model
[8] = ratio of KD with respect to HRAS wild-type protein to KD with respect to KRAS
[9] = ratio of KD with respect to GDP-bound NRAS wild-type protein to KD with respect to KRAS
[10] = 50% proliferation inhibitory concentration, four days

Sequence of GDP-bound KRAS wild-type protein (P01116 1-188 isoform P01116-2): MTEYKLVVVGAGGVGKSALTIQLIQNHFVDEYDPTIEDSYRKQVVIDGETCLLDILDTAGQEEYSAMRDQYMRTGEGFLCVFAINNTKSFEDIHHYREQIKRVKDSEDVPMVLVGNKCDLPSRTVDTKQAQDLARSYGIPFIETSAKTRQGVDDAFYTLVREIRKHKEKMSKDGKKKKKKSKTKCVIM

| Structure (SMILES) | Kd ([1]; Single Cycle Kinetics) [nM] | IC50 ([4]; NCI-H441 cells, 4 days) [nM] | Kd ([1]; 1:1 binding model) [nM] | Kd [1, 7] [nM] | IC50 [4, 10] [nM] | HRAS /KRAS [2, 5] | NRAS /KRAS [3, 6] | HRAS /KRAS [2, 8] | NRAS /KRAS [3, 9] |
| --- | --- | --- | --- | --- | --- | --- | --- | --- | --- |
| CCO[C@H](C)[C@@H]1NC(=O)[C@H](CC(C)C)N(C)C(=O)C[C@@H](C(=O)N(C)CC)N(C)C(=O)[C@H](C2CCCC2)N(C)C(=O)C2(CC(C)(C)C2)NC(=O)[C@@H]2C[C@H](C)CN2C(=O)[C@H](CCc2ccc(C(F)(F)F)c(OC)c2)NC(=O)CN(C)C(=O)[C@H](Cc2ccc(C)cc2)N2CC/C=C\C[C@@H](C2=O)N(C)C(=O)CN(C)C1=O [PP2413] | – | 115 | 0.25 | – | – | A (a compound having 10 or more and less than 20 is denoted as A) | A (a compound having 10 or more and less than 20 is denoted as A) | – | – |
| CCCCCC[C@H]1C(=O)N[C@@H]([C@@H](C)CC)C(=O)N(C)CC(=O)N(C)[C@H]2C/C=C\CCN(C2=O)[C@@H](Cc2ccc(C(F)(F)F)cc2)C(=O)N(C)CC(=O)N[C@@H](CCc2ccc(C(F)(F)F)c(OC)c2)C(=O)N2C[C@H](OCC)C[C@H]2C(=O)NC2(CCC2)C(=O)N(C)[C@@H](C2CCCC2)C(=O)N(C)[C@H](C(=O)N(C)C)CC(=O)N1C [PP1246] | – | – | – | 0.081 | 9 | – | – | A (a compound having 10 or more and less than 20 is denoted as A) | A (a compound having 10 or more and less than 20 is denoted as A) |
| CCO[C@@H]1C[C@H]2C(=O)NC3(CCC3)C(=O)N(C)[C@@H](C3CCCC3)C(=O)N(C)[C@H](C(=O)N3CCCC3)CC(=O)N(C)[C@@H](CC3CC3)C(=O)N[C@@H]([C@@H](C)CC)C(=O)N(C)CC(=O)N(C)[C@H]3C/C=C\CCN(C3=O)[C@@H](Cc3ccc(C(F)(F)F)cc3)C(=O)N(C)CC(=O)N[C@@H](CCc3cc(F)c(C(F)(F)F)c(F)c3)C(=O)N2C1 [PP1296] | – | – | – | 0.12 | 14.7 | – | – | A (a compound having 10 or more and less than 20 is denoted as A) | AA (a compound having 20 or more is denoted as AA) |

Continued, in another order:

| Kd ([1]; Single Cycle Kinetics) [nM] | IC50 ([4]; NCI-H441 cells, 4 days) [nM] | Kd ([1]; 1:1 binding model) [nM] | Kd [1, 7] [nM] | IC50 [4, 10] [nM] | Structure (SMILES) | HRAS /KRAS [2, 5] | NRAS /KRAS [3, 6] | HRAS /KRAS [2, 8] | NRAS /KRAS [3, 9] |
| --- | --- | --- | --- | --- | --- | --- | --- | --- | --- |
| 0.81 | 69.9 | – | – | – | CCO[C@@H]1C[C@H]2C(=O)NC3(CC(C)(C)C3)C(=O)N(C)[C@@H](C3CCCC3)C(=O)N(C)[C@H](C(=O)N(C)CC)CC(=O)N(C)[C@@H]([C@@H](C)OC)C(=O)N[C@@H]([C@@H](C)CC)C(=O)N3CCC[C@H]3C(=O)N(C)[C@H]3C/C=C\CCN(C3=O)[C@@H](Cc3ccc(C(F)(F)F)cc3)C(=O)N(C)CC(=O)N[C@@H](CCc3cc(F)c(C(F)(F)F)c(F)c3)C(=O)N2C1 [PP3172] | A (a compound having 10 or more and less than 20 is denoted as A) | AA (a compound having 20 or more is denoted as AA) | – | – |
| 4.2 | 34.7 | – | – | – | C=C(C)C[C@H]1C(=O)N(C)[C@H](C(=O)N(C)C)CC(=O)N(C)[C@@H](CC(C)C)C(=O)N[C@@H]([C@@H](C)CC)C(=O)N2CCC[C@H]2C(=O)N(C)[C@H]2C/C=C\CCN(C2=O)[C@@H](Cc2ccc(C)cc2)C(=O)N(C)CC(=O)N[C@@H](CCc2cc(F)c(C(F)(F)F)c(F)c2)C(=O)N2C[C@H](OCC)C[C@H]2C(=O)N(C)C2(CCC2)C(=O)N1C [PP3351] | A (a compound having 10 or more and less than 20 is denoted as A) | A (a compound having 10 or more and less than 20 is denoted as A) | – | – |
| 0.24 | 15.6 | – | – | – | CCC[C@H]1C(=O)N[C@@H]([C@@H](C)CC)C(=O)N(C)CC(=O)N(C)[C@H]2C/C=C\CCN(C2=O)[C@@H](Cc2ccc(C(F)(F)F)cc2)C(=O)N(C)CC(=O)N[C@@H](CCc2ccc(C(F)(F)F)c(OC)c2)C(=O)N2CC3(CC3)C[C@H]2C(=O)NC2(CCC2)C(=O)N(C)[C@@H]([C@@H](C)CC)C(=O)N(C)[C@H](C(=O)N(C)C)CC(=O)N1C [PP3410] | A (a compound having 10 or more and less than 20 is denoted as A) | AA (a compound having 20 or more is denoted as AA) | – | – |
